Assay results taken from publication PMC6063804 (EJNMMI Research, 2018).
Read-outs that look alike come from different tables or passages of the source.

What was measured:
[1] = system: NMDA-R ion channel site; parameters: method as in PMID 26325093; conditions: rats, 3 mg ∙ kg^−1 IV, cited from earlier work
[2] = target: ion channel of NMDA-R; parameters: method as in PMID 25648682; conditions: unlabelled compounds; rat forebrain membranes; read-out: concentrations that inhibit specific binding of [^3H]MK-801; cited from earlier work
[3] = parameters: method as in PMID 18176855; conditions: 1.1 mg ∙ kg^−1 S-ketamine over 75 min; cited from earlier work
[4] = Plasma ketamine concentration during PET; assay type: in vivo, human
From the text: The final arterial plasma input function was derived using both continuous and discrete arterial blood data. The input function was corrected for plasma to whole blood ratio, metabolites, and time delay. For each scan, two additional plasma input functions were generated to investigate the effect of within-subject and between-subject variability in plasma data. For the within-subject averaged input function, the mean of PET1 and PET2 [^18F]PK-209 parent fractions per subject were used at each of the eight sample timepoints for both scans. For the population-averaged input function, the mean parent fractions for all five subjects in the TRT and ketamine groups (i.e., 10 scans) were taken at each timepoint. The manual arterial blood samples were also used for assessment of the plasma ketamine concentration. The area under the ketamine concentration–time curve was estimated by means of the trapezoidal rule.
(§1) The (S+)-isomer of ketamine (0.5 mg · kg^−1) was dissolved in NaCl 50 mL and administered intravenously in a pseudo-steady state model with a sub-acute loading dose. First, ketamine was administered for 40 min at a rate of 0.006 mg · kg^−1 · min^−1 followed by a 130 min equilibrium phase at 0.002 mg · kg^−1 · min^−1. [^18F]PK-209 injection and start of PET were performed at 10 min into the equilibrium phase, following 0.26 mg · kg^−1 administration in the preceding 50 min.

[5] = Tolerability of ketamine infusion; assay type: in vivo, human
Method: as §1

[6] = system: NMDA-R; parameters: method as in PMID 26661185; conditions: humans; intravenous ketamine 0.3 mg · kg^−1; on average; cited from earlier work
[7] = system: ion channel site; parameters: method as in PMID 26325093; conditions: displacement binding studies; cited from earlier work
[8] = system: PCP binding site; conditions: cited from earlier work

CNC1(c2ccccc2Cl)CCCCC1=O (racemic) [(±)ketamine]
inhibition of [^3H]MK-801 binding ([1]; 1 min post-dosing): 67%
inhibition of [^3H]MK-801 binding ([1]; 20 min post-dose): 19%

COc1cccc(N(C)C(=N)Nc2cc(SC)ccc2Cl)c1 [GMOM, reference compound]
K i [2]: 21.7 nM

CNC1(c2ccccc2Cl)CCCCC1=O (stereo not drawn) [ketamine]
mean plasma concentration [3]: 173 ng/mL
mean plasma ketamine concentration, plateau ([4]; between 20 and 60 min after the start of PET, 0.5 mg ∙ kg^−1 infusion): ~ 100 ng ∙ mL^−1
mean plasma ketamine concentration ([4]; end of the scan, 160 min since the start of infusion): ~ 70 ng ∙ mL^−1
tolerability ([5]; S-ketamine 0.5 mg · kg^−1 intravenous infusion, healthy subjects): well tolerated by all subjects
feelings of dissociation ([5]; at the start of PET scanning): reported by all subjects

COc1cccc(N(C)C(=N)Nc2cc(SC)ccc2Cl)c1 [[^11C]GMOM, [11C]N-(2-chloro-5-thiomethylphenyl)-N′-(3-methoxy-phenyl)-N′-methylguanidine]
reduction of radiotracer net influx rate (Ki) in whole brain gray matter [6]: 66%

C[C@]12N[C@H](Cc3ccccc31)c1ccccc12 [MK-801]
potency relative to (±)ketamine at the ion channel site [7]: two orders of magnitude more potent

CSc1cccc(N(C)C(N)=Nc2cc(SCC[18F])ccc2Cl)c1 [[^18F]GE-179]
block of the PET signal by cold GE-179 ([8]; GE-179 0.6 mg ∙ kg^−1 at steady state, bolus-plus-infusion, anesthetized non-human primates): did not significantly block the PET signal
specificity of the PET signal ([8]; preclinical in vivo evaluation): largely non-specific
